# Laboratory results taken from patent US4876260A, “Oxathiolanes” (State of Israel, Israel Institute of Biological Research, priority 1988, dated 1989).
# Where “and” joins values, the source holds several entries; their conditions need not be identical. Equal entries are not always repeated. Entries after “also recorded” stand apart in the source; their conditions may differ. Where two headings read alike, the source gives them in different places.
# How the values were obtained:
# [1] = tested on: muscarinic receptors (3H-QNB sites, cerebellum, mainly M2); test: biochemical; assay type: binding, rat; conditions: for b':b": (k) Ki(3H-QNB) frontal cortex : Ki(3H-QNB) cerebellum
# [2] = target: T1, muscarinic receptors (3H-QNB sites, cerebellum, mainly M2) (Rattus norvegicus, UniProt P10980); test: biochemical; assay type: binding; conditions: Ki(3H-QNB), (b") cerebellum
# T1 sequence (P10980 1-466): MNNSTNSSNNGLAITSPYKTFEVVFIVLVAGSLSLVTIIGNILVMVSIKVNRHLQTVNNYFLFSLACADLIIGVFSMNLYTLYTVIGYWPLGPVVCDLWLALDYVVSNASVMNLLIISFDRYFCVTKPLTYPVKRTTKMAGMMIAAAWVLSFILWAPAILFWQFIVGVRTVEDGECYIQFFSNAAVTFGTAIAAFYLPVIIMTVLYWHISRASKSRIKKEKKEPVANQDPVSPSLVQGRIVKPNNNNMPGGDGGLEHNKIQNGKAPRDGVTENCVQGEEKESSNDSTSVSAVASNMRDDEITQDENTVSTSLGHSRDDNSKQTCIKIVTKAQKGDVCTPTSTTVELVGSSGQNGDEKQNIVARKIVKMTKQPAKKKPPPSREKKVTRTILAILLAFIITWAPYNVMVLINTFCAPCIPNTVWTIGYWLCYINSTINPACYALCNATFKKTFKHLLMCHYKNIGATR
# [3] = target: T2, M1 muscarinic receptors (3H-PZ sites, forebrain) (Rattus norvegicus, UniProt P08482); test: Displacement of 3H-Pirenzepine (3H-PZ, selective M1 antagonist) from rat forebrain homogenate; assay type: binding
# T2 sequence (P08482 1-460): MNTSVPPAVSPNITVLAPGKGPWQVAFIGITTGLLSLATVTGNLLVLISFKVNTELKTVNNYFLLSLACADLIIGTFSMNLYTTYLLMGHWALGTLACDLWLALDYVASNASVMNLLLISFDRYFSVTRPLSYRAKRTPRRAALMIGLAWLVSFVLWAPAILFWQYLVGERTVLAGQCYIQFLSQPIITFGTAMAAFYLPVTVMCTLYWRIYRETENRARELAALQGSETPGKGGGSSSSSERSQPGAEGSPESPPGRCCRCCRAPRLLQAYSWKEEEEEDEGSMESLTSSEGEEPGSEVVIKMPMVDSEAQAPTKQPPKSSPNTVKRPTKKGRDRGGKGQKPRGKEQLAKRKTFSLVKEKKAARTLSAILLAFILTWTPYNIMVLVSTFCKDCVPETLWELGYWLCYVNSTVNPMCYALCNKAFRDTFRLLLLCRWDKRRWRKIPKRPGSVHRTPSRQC
# [4] = target: muscarinic receptors (3H-CD sites, M1 and M2, forebrain); test: Displacement of 3H-cis-dioxolane (3H-CD, non-selective M1 and M2 agonist) from rat forebrain homogenate; assay type: binding
# [5] = target: muscarinic receptors (3H-QNB sites, M1 and M2, forebrain); assay type: binding, rat; conditions: (b) forebrain
# all muscarinic receptors = conditions: cited from earlier work
# [6] = target: muscarinic receptors (3H-CD sites, frontal cortex); test: Displacement of 3H-CD from rat frontal cortex homogenate; assay type: binding; conditions: (c') frontal cortex
# [7] = target: muscarinic receptors (3H-QNB sites, frontal cortex); assay type: binding, rat; conditions: (b') frontal cortex
# [8] = target: T3, M1 muscarinic receptors (3H-PZ sites, frontal cortex) (Rattus norvegicus, UniProt P08482); test: Displacement of 3H-PZ from rat frontal cortex homogenate; assay type: binding; conditions: for a':c', Ki(3H-PZ):Ki(3H-CD): (g) frontal cortex ratio
# T3 sequence (P08482 1-460): T2 sequence (P08482 1-460)
# [9] = tested on: isolated guinea-pig ileum; test: Contraction of isolated guinea-pig ileum preparation; conditions: listed as AF122A
# Excerpt: (§1) From this Table, it appears that compounds (III) were not so effective in contracting the guinea pig ileum preparation.
# mice = test: Pharmacodynamic profile and general toxicity in mice; assay type: in vivo, CD-1 mice
# Protocol: Male white mice of the CD-1 strain supplied by Charles River Ltd. (U.K.) were used throughout. An acclimatization period of at least three days was allowed between arrival and commencement of a particular experimental series. The animals were fed a complete commercial pelleted rodent diet without restriction during the acclimatization and study periods. Animals had free access to tap water. Body weights during testing were mostly within 20-28 g.
# Test materials were prepared as aqueous solutions in physiological saline (0.9% NaCl), up to a maximum concentration of 10 mg./ml. All materials were freshly prepared on the morning prior to each dosing session. Dosages were expressed gravimetrically (mg./kg.), in terms of the materials as received.
# Groups of mice (mostly n=5) received either i.v. or oral administration of the test materials at various dose levels. Dose volumes appropriate for respective dose levels selected, were determined for each animal according to body weights on the day of dosing. Any behavioral changes occurring during one to two hours after administration, as well as incidence of death up to 24 hours after dosing were recorded.
# [10] = tested on: ACh-induced contractions of guinea-pig ileum; test: Blocking of ACh-induced contractions of isolated guinea-pig ileum; conditions: listed as AF122A
# Excerpt: as §1
# [11] = 25 mg/kg i.v., listed as (±)-III AF122A
# [12] = 100 mg/kg p.o., listed as (±)-III AF122A
# [13] = 200 mg/kg p.o., listed as (±)-III AF122A
structure (smiles),measurement,setting,value
"O=C1CCCN1CC#CCN1CCCC1 [compound 1, Oxotremorine]","a:b""",[1]; (h) Ki(3H-PZ) forebrain : Ki(3H-QNB) cerebellum,0.86
same,"b:b""",[1]; (j) Ki(3H-QNB) forebrain : Ki(3H-QNB) cerebellum,3.00
same,"b':b""",[1],1.69
same,"order of M1 versus M2 selectivity, IC50 (FB):IC50 (CER) or IC50 (frontal cortex):IC50 (CER)","[1]; FB=forebrain, CER=cerebellum",compound #4>compound #3>oxotremorine
same,Ki,[2],0.7 µM and 1.31 µM
same,order of the ratios Ki(3H-PZ):Ki(3H-CD),[3],oxotremorine >McN-A-343>compound # 3; also recorded: weakest relative affinity towards M1 binding sites
same,"a:b, Ki(3H-PZ):Ki(3H-QNB)",[3]; (d) forebrain ratio,0.29
same,order of the ratios Ki(3H-PZ):Ki(3H-QNB),"[3]; forebrain, among oxotremorine, McN-A-343, compound #3",McN-A-343 >compound #3>oxotremorine; also recorded: relatively stronger than McN-A-343 and compound #3
same,Ki,"[4]; (c) forebrain, * in M × 10^-10",0.00096 ± 0.00042 µM
same,Ki,[5],2.1 ± 0.3 µM
same,affinity towards all muscarinic receptors (in words),all muscarinic receptors,greater than those of the weaker agonists McN-A-343 or compound #3
same,Ki,[6],0.0016 ± 0.0004 µM
same,Ki,[7],2.2 ± 0.3 µM
same,"a':b', Ki(3H-PZ):Ki(3H-QNB)",[8]; (f) frontal cortex ratio,0.1
same,"a':c', Ki(3H-PZ):Ki(3H-CD)",[8],137.5
same,Ki,[8]; Ki(3H-PZ),0.22 ± 0.07 µM
"CC1OCC2(CN3CCC2CC3)S1 (stereo not shown) [compound 11, 2-methylspiro(1,3-oxathiolan-4,3')quinuclidine]","b':b""",[1],0.49
same,Ki,[2],19.8 ± 6.1 µM
same,M1 selectivity (in words),"[3]; from Tables 2A, 2B, 2C",high M1 selectivity
same,Ki,"[4]; Table 2B column (c'), footnote *forebrain",0.75 µM
same,Contraction of guinea pig ileum (in words),[9],did not produce any significant contractions in the concentration range within which it binds to the brain receptors
same,"Analgesia (nonresponsiveness to tail pinch), No. affected/total treated",mice; 10 mg/kg i.v.,2/5
same,"Vocalization, No. affected/total treated",mice; 10 mg/kg i.v.,2/5
same,"Mortality, No. dead/total treated","mice; 10 mg/kg i.v., listed as (±)-III AF122A",0/5
same,"Vocalization, No. affected/total treated",mice; 25 mg/kg i.v.,3/6
same,"Analgesia (nonresponsiveness to tail pinch), No. affected/total treated",mice; [11],4/5
same,"Convulsive seizures, No. affected/total treated",mice; [11],1/6
same,"Exophthalmus, No. affected/total treated",mice; [11],3/6
same,"Mortality, No. dead/total treated",mice; [11],1/6
same,"Respiratory distress, No. affected/total treated",mice; [11],4/6
same,"Tremors, No. affected/total treated",mice; [11],3/6
same,"Mortality, time after drug administration","mice; 25 mg/kg i.v., m = minutes",1 m
same,"Convulsive seizures, No. affected/total treated",mice; 50 mg/kg i.v.,2/2
same,"Mortality, No. dead/total treated",mice; 50 mg/kg i.v.,2/2
same,"Mortality, time after drug administration",mice; 50 mg/kg i.v.,5 s
same,"Mortality, No. dead/total treated",mice; 50 mg/kg p.o.,0/5
same,"Mortality, No. dead/total treated",mice; 100 mg/kg i.v.,2/2
same,"Mortality, time after drug administration","mice; 100 mg/kg i.v., immed = immediately",immed
same,"Mortality, No. dead/total treated",mice; [12],0/5
same,"Tremors, No. affected/total treated",mice; [12],5/5
same,"Mortality, time after drug administration",mice; 200 mg/kg p.o.,30 s
same,"Convulsive seizures, No. affected/total treated",mice; [13],5/5
same,"Mortality, No. dead/total treated",mice; [13],5/5
same,"Tremors, No. affected/total treated",mice; [13],5/5
same,Ki,[7],9.7 ± 2.3 µM
same,"a':b', Ki(3H-PZ):Ki(3H-QNB)",[8],0.09
same,Ki,"[8]; (a') frontal cortex, read-out: Ki(3H-PZ)",0.84 ± 0.03 µM
same,"a':c', Ki(3H-PZ):Ki(3H-CD)",[8],1.0
same,Effect on ACh-induced contractions (in words),[10],perturbed the ACh-induced contractions when applied in relatively high concentrations
